In patent US20230210819A1, “USE OF BENZISOSELAZOLE DERIVATIVE FOR ANTI-CORONAVIRUS AND CONTROL OF INTERSTITIAL LUNG DISEASE (ILD) RELATED TO CORONAVIRUS” (SHANGHAI YUANXI MEDICINE CORP., priority 2020, published 2023):
“Also recorded” adds a separate entry of the source.

Key:
[1] = Body weight, bleomycin-induced mice, 24-h modeling; assay type: in vivo, C57 mice; settings: BS 90 mg/kg gavage daily
Description: Animals of 24-h modeling were randomly divided into 5 groups according to the table below, 3 animals per control group and 5 animals per test group.
(§1) Drug administration began 24 h or 7 d after modeling. […] The day of the first administration was counted as D1, the next day as D2, and so forth. The normal groups and Model groups were given 200 µL of normal saline daily by gavage administration.
(§2) All the animals were observed once daily during the experiment for death or dying, feces, ingestion, mental state and behavior and activity. Abnormalities were recorded in time. All the animals were weighed once before grouping and once before each dose.
In this experiment, 105 C57 mice were randomly selected and subjected to organ drip administration of a single dose of bleomycin at 2.5 mg/kg for 24 h or 7 d for induction. After 7 days of induction, 3 model mice were randomly selected and dissected to determine whether the modeling was successful. After modeling, the survival of the mice was recorded. The living states of the mice were observed and their body weight was measured at a fixed time.
A normal control group comprised 3 mice.

[2] = system: inflammatory cells in bronchoalveolar lavage fluid; test: Inflammatory cell assay of bronchoalveolar lavage fluid, 7-d modeling; assay type: in vivo, C57 mice
Description: (§3) Animals of 7-d modeling were randomly divided into 7 groups according to the table below, 6 animals per control group and 12 animals per test group.
as §1
(§4) After the mouse was fixed, its trachea and chest cavity were exposed, and the trachea and the esophagus were bluntly separated with an ophthalmic curved forceps. Two sutures were made between the trachea and the esophagus. An intravenous trocar was inserted into the trachea and ligated at the site where it entered the trachea and at its distal end. A 1 mL syringe was connected to draw in 1 mL of pre-cooled PBS and infuse it into the lung tissue. Significant filling in the lung could be seen with the naked eye. The syringe was held for 10 s and withdrawal was performed. The infusion/withdrawal cycle was repeated 3 times. The withdrawn BALF was transferred to a clean EP tube and centrifuged at 4° C., and the supernatant was collected and preserved at -80° C. The cells were subjected to routine tests.
Upon the end of the administration, the leukocytes (lymphocytes, neutrophils and monocytes) in the bronchoalveolar lavage fluids of the mice in the 7-d modeling groups were classified and counted.

[3] = Toxic or side effects on mice on gavage administration; assay type: in vivo; settings: BS 36, 90 and 180 mg/kg
Description: Accordingly, the above dosages were selected as the dosages for administration in this experiment,
as §2

[4] = system: cytokines in bronchoalveolar lavage fluid; test: Inflammatory factor assay of bronchoalveolar lavage fluid by ELISA; assay type: in vivo, C57 mice; settings: for Percent reduction in IFN-γ in bronchoalveolar lavage fluid with respect to the Model group / Percent reduction in PPAR-y in bronchoalveolar lavage fluid with respect to the Model group: negative = increase; for IL-1β in bronchoalveolar lavage fluid / IL-2 in bronchoalveolar lavage fluid / IL-6 in bronchoalveolar lavage fluid / TNF-α in bronchoalveolar lavage fluid: second half of table, head taken from the 24th table
Description: as §3, §1
as §4, with “The infusion” for “The syringe”, “was stopped” for “was held”, “The bronchoalveolar lavage fluid was assayed for inflammatory factors by ELISA.” for “The cells were subjected to routine tests.”

For `O=c1c2ccccc2[se]n1CCCCn1[se]c2ccccc2c1=O` [BS, 1,4-[bis(1,2-benzisoselenazol-3(2H)-one)]butane], the Body weight ([1]; D1) was 20.34 ± 1.01 g, the Body weight ([1]; D7) was 19.50 ± 1.35 g and the Body weight ([1]; D14) was 18.84 ± 1.70 g. It also gave a Body weight ([1]; D21) of 18.52 ± 1.75 g, a Body weight ([1]; D28) of 18.30 ± 1.60 g and a Body weight ([1]; D35) of 18.02 ± 1.75 g. For the same compound, the “Body weight decreased by” value ([1]; day 1 to day 35) was 13.58%, the “Effect on pulmonary inflammation (in words)” value ([2]; BS 180 mg/kg, better than Dex (1-1.5 mg/kg)) was “significantly ameliorate pulmonary inflammation” and the “Absolute leukocyte count in bronchoalveolar lavage fluid” value (“Absolute leukocyte count” for short) ([2]; BSH: BS 180 mg/kg gavage daily) was 0.43±0.04 10^9/L. The “Absolute lymphocyte count in bronchoalveolar lavage fluid” value (“Absolute lymphocyte count” for short) ([2]; BSH: BS 180 mg/kg gavage daily) was 0.34±0.03 10^9/L, the “Absolute monocyte count in bronchoalveolar lavage fluid” value (from here on “Absolute monocyte count”) ([2]; BSH: BS 180 mg/kg gavage daily) was 0.02±0.00 10^9/L and the “Absolute neutrophil count in bronchoalveolar lavage fluid” value (“Absolute neutrophil count” below) ([2]; BSH: BS 180 mg/kg gavage daily) was 0.02±0.01 10^9/L. For the same compound, the “Percent reduction in leukocytes in bronchoalveolar lavage fluid with respect to the Model group” value (“Percent reduction in leukocytes” for short) ([2]; BSH: BS 180 mg/kg gavage daily) was 58.39%, the “Percent reduction in lymphocytes in bronchoalveolar lavage fluid with respect to the Model group” value (“Percent reduction in lymphocytes” below) ([2]; BSH: BS 180 mg/kg gavage daily) was 60.73% and the “Percent reduction in monocytes in bronchoalveolar lavage fluid with respect to the Model group” value (“Percent reduction in monocytes” below) ([2]; BSH: BS 180 mg/kg gavage daily) was 57.14%. For the same compound, the “Percent reduction in neutrophils in bronchoalveolar lavage fluid with respect to the Model group” value (from here on “Percent reduction in neutrophils”) ([2]; BSH: BS 180 mg/kg gavage daily) was 74.07%, the “Absolute leukocyte count” value ([2]; BSL: BS 36 mg/kg gavage daily) was 0.87±0.04 10^9/L and the “Absolute lymphocyte count” value ([2]; BSL: BS 36 mg/kg gavage daily) was 0.70±0.03 10^9/L. For the same compound, the “Absolute monocyte count” value ([2]; BSL: BS 36 mg/kg gavage daily) was 0.04±0.01 10^9/L, the “Absolute neutrophil count” value ([2]; BSL: BS 36 mg/kg gavage daily) was 0.08±0.01 10^9/L and the “Percent reduction in leukocytes” value ([2]; BSL: BS 36 mg/kg gavage daily) was 16.29%. For the same compound, the “Percent reduction in lymphocytes” value ([2]; BSL: BS 36 mg/kg gavage daily) was 19.54%, the “Percent reduction in monocytes” value ([2]; BSL: BS 36 mg/kg gavage daily) was 25.00% and the “Percent reduction in neutrophils” value ([2]; BSL: BS 36 mg/kg gavage daily) was 7.41%. The “Absolute leukocyte count” value ([2]; BSM: BS 90 mg/kg gavage daily) was 0.69±0.06 10^9/L, the “Absolute lymphocyte count” value ([2]; BSM: BS 90 mg/kg gavage daily) was 0.56±0.05 10^9/L and the “Absolute monocyte count” value ([2]; BSM: BS 90 mg/kg gavage daily) was 00.3±0.01 10^9/L. The “Absolute neutrophil count” value ([2]; BSM: BS 90 mg/kg gavage daily) was 0.08±0.01 10^9/L, the “Percent reduction in leukocytes” value ([2]; BSM: BS 90 mg/kg gavage daily) was 32.90% and the “Percent reduction in lymphocytes” value ([2]; BSM: BS 90 mg/kg gavage daily) was 35.63%. The “Percent reduction in monocytes” value ([2]; BSM: BS 90 mg/kg gavage daily) was 42.86%, the “Percent reduction in neutrophils” value ([2]; BSM: BS 90 mg/kg gavage daily) was 16.67% and the “Toxic or side effects (in words)” value [3] was “no toxic and side effects; also recorded: no significant toxic or side effects”. The “IFN-γ in bronchoalveolar lavage fluid” value ([4]; BSH: BS 180 mg/kg gavage daily) was 55.70 ± 4.27 pg/mL, the “NF-κB in bronchoalveolar lavage fluid” value ([4]; BSH: BS 180 mg/kg gavage daily) was 759.34 ± 104.53 pg/mL and the “PPAR-γ in bronchoalveolar lavage fluid” value ([4]; BSH: BS 180 mg/kg gavage daily) was 237.75 ± 24.92 pg/mL. For the same compound, the “Percent reduction in IL-1β in bronchoalveolar lavage fluid with respect to the Model group” value (“Percent reduction in IL-1β” for short) ([4]; BSH: BS 180 mg/kg gavage daily) was 61.70%, the “Percent reduction in IL-2 in bronchoalveolar lavage fluid with respect to the Model group” value ([4]; BSH: BS 180 mg/kg gavage daily) was 10.87% and the “Percent reduction in IL-6 in bronchoalveolar lavage fluid with respect to the Model group” value ([4]; BSH: BS 180 mg/kg gavage daily) was 67.10%. The “Percent reduction in NF-κB in bronchoalveolar lavage fluid with respect to the Model group” value (shortened to “Percent reduction in NF-κB”) ([4]; BSH: BS 180 mg/kg gavage daily) was 17.22%, the “Percent reduction in TGF-β in bronchoalveolar lavage fluid with respect to the Model group” value (“Percent reduction in TGF-β” below) ([4]; BSH: BS 180 mg/kg gavage daily) was 14.53% and the “Percent reduction in TNF-α in bronchoalveolar lavage fluid with respect to the Model group” value (from here on “Percent reduction in TNF-α”) ([4]; BSH: BS 180 mg/kg gavage daily) was 22.95%. For the same compound, the “TGF-β in bronchoalveolar lavage fluid” value ([4]; BSH: BS 180 mg/kg gavage daily) was 161.82 ± 20.96 pg/mL, the “Percent reduction in IFN-γ in bronchoalveolar lavage fluid with respect to the Model group” value (shortened to “Percent reduction in IFN-γ”) ([4]; BSH: BS 180 mg/kg gavage daily) was -67.81% and the “Percent reduction in PPAR-y in bronchoalveolar lavage fluid with respect to the Model group” value (“Percent reduction in PPAR-y” below) ([4]; BSH: BS 180 mg/kg gavage daily) was -9.52%. The “IL-1β in bronchoalveolar lavage fluid” value ([4]; BSH: BS 180 mg/kg gavage daily) was 4.78 ± 0.69 pg/mL, the “IL-2 in bronchoalveolar lavage fluid” value ([4]; BSH: BS 180 mg/kg gavage daily) was 40.37 ± 5.25 pg/mL and the “IL-6 in bronchoalveolar lavage fluid” value ([4]; BSH: BS 180 mg/kg gavage daily) was 9.47 ± 1.96 pg/mL. For the same compound, the “TNF-α in bronchoalveolar lavage fluid” value ([4]; BSH: BS 180 mg/kg gavage daily) was 43.24 ± 7.14 pg/mL, the “Inhibitory effect on inflammatory cells and proinflammatory factors (NF-κB, TNF-α, IL-1β, IL-2, IL-6) compared to Dex, in words” value ([4]; BSH: BS 180 mg/kg, used alone) was “greater inhibitory effect” and the “IFN-γ in bronchoalveolar lavage fluid” value ([4]; BSL: BS 36 mg/kg gavage daily) was 38.74 ± 4.74 pg/mL. For the same compound, the “NF-κB in bronchoalveolar lavage fluid” value ([4]; BSL: BS 36 mg/kg gavage daily) was 867.20 ± 174.12 pg/mL, the “PPAR-γ in bronchoalveolar lavage fluid” value ([4]; BSL: BS 36 mg/kg gavage daily) was 38.74 ± 4.74 pg/mL and the “Percent reduction in IL-1β” value ([4]; BSL: BS 36 mg/kg gavage daily) was 17.88%. For the same compound, the “Percent reduction in IL-2 in bronchoalveolar lavage fluid with respect to the Model group” value ([4]; BSL: BS 36 mg/kg gavage daily) was 4.03%, the “Percent reduction in IL-6 in bronchoalveolar lavage fluid with respect to the Model group” value ([4]; BSL: BS 36 mg/kg gavage daily) was 49.92% and the “Percent reduction in NF-κB” value ([4]; BSL: BS 36 mg/kg gavage daily) was 5.46%. The “Percent reduction in TGF-β” value ([4]; BSL: BS 36 mg/kg gavage daily) was 0.42%, the “Percent reduction in TNF-α” value ([4]; BSL: BS 36 mg/kg gavage daily) was 7.38% and the “TGF-β in bronchoalveolar lavage fluid” value ([4]; BSL: BS 36 mg/kg gavage daily) was 188.54 ± 24.55 pg/mL. The “Percent reduction in IFN-γ” value ([4]; BSL: BS 36 mg/kg gavage daily) was -16.73%, the “Percent reduction in PPAR-y” value ([4]; BSL: BS 36 mg/kg gavage daily) was -5.79% and the “IL-1β in bronchoalveolar lavage fluid” value ([4]; BSL: BS 36 mg/kg gavage daily) was 10.26 ± 1.29 pg/mL. The “IL-2 in bronchoalveolar lavage fluid” value ([4]; BSL: BS 36 mg/kg gavage daily) was 43.46 ± 7.51 pg/mL, the “IL-6 in bronchoalveolar lavage fluid” value ([4]; BSL: BS 36 mg/kg gavage daily) was 14.41 ± 1.33 pg/mL and the “TNF-α in bronchoalveolar lavage fluid” value ([4]; BSL: BS 36 mg/kg gavage daily) was 51.98 ± 4.37 pg/mL. The “IFN-γ in bronchoalveolar lavage fluid” value ([4]; BSM: BS 90 mg/kg gavage daily) was 53.31 ± 5.29 pg/mL, the “NF-κB in bronchoalveolar lavage fluid” value ([4]; BSM: BS 90 mg/kg gavage daily) was 824.16 ± 155.14 pg/mL and the “Percent reduction in IL-1β” value ([4]; BSM: BS 90 mg/kg gavage daily) was 47.93%. The “Percent reduction in IL-2 in bronchoalveolar lavage fluid with respect to the Model group” value ([4]; BSM: BS 90 mg/kg gavage daily) was 9.81%, the “Percent reduction in IL-6 in bronchoalveolar lavage fluid with respect to the Model group” value ([4]; BSM: BS 90 mg/kg gavage daily) was 54.37% and the “Percent reduction in NF-κB” value ([4]; BSM: BS 90 mg/kg gavage daily) was 10.15%. The “Percent reduction in TGF-β” value ([4]; BSM: BS 90 mg/kg gavage daily) was 2.87%, the “Percent reduction in TNF-α” value ([4]; BSM: BS 90 mg/kg gavage daily) was 11.68% and the “TGF-β in bronchoalveolar lavage fluid” value ([4]; BSM: BS 90 mg/kg gavage daily) was 178.54 ± 14.64 pg/mL. For the same compound, the “Percent reduction in IFN-γ” value ([4]; BSM: BS 90 mg/kg gavage daily) was -60.63%, the “Percent reduction in PPAR-y” value ([4]; BSM: BS 90 mg/kg gavage daily) was -6.09% and the “IL-1β in bronchoalveolar lavage fluid” value ([4]; BSM: BS 90 mg/kg gavage daily) was 6.50 ± 1.38 pg/mL. The “IL-2 in bronchoalveolar lavage fluid” value ([4]; BSM: BS 90 mg/kg gavage daily) was 40.84 ± 3.88 pg/mL, the “IL-6 in bronchoalveolar lavage fluid” value ([4]; BSM: BS 90 mg/kg gavage daily) was 13.13 ± 1.03 pg/mL and the “TNF-α in bronchoalveolar lavage fluid” value ([4]; BSM: BS 90 mg/kg gavage daily) was 49.57 ± 5.97 pg/mL.
